Data reported in patent publication US11666586B2, “Compositions and methods for treating acne vulgaris” (Dermala, Inc., priority 2016, dated 2023).
Values after ≈ are worked out from the molar mass of the structure shown. Read-outs that look alike come from different tables or passages of the source.

Tests used:
[1] = system: P. acnes (ATCC 6919); test: Minimum Inhibitory Concentration (MIC) determination, microbroth dilution; format: cell-based, Propionibacterium acnes; settings: API alone, 48 h anaerobic, ≥90% reduction in growth (OD600); for MIC: Cutibacterium acnes, ATCC6919, read-out: individual MIC
Protocol: P. acnes (ATCC 6919) was cultured on Brucella plates supplemented with 0.1 g/L hemin, 0.01 g/L vitamin K, and 5% (v/v) defibrinated sheep's blood at 37° C. under anaerobic conditions using a Gas-Pak (BD). For each assay, an inoculum of P. acnes was prepared by suspending a colony of P. acnes in 5 mL Reinforced Clostridium medium (RCM) and growing at 37° C. and 250 RPM under anaerobic conditions for 30 hours. […] Individual MIC values were determined for each drug according to the microbroth dilution method. […] Media without P. acnes and medium with P. acnes only were used for negative and positive controls, respectively, and contained the highest concentration of solvent used in each drug analysis. Plates were incubated under anaerobic conditions using a Gas-Pak (BD) for 48 hours at 37° C. Following incubation, each well was resuspended by pipetting and the optical density at 600 nm (OD600) was determined on a plate reader.

[2] = Testing of combination products in human subjects with acne; settings: spot treatment
Source text: The Formulation 1 was applied using Acne Treatment Pads one or two times per day.

[3] = system: S. epidermidis (ATCC 12228); test: Fermentation of prebiotics by S. epidermidis; format: cell-based, Staphylococcus epidermidis; settings: 2% prebiotic, six days anaerobic, compared to PBS control
Protocol: Preparation of Prebiotics: Glycerol, sucrose, β-lactose, and D-(+)-maltose were purchased from Sigma-Aldrich. Stock solutions of each prebiotic (4% w/v) were prepared in water and filtered through a 0.22 μm filter for sterilization.
Preparation of S. epidermidis conditioned media: S. epidermidis (ATCC 12228) was cultured on trypic soy broth (TSB) agar plates at 37° C. For each assay, an inoculum of S. epidermidis was prepared by suspending one colony of S. epidermidis from a TSB agar plate into 7 ml of TSB broth and growing at 37° C., 215 RPM for 16 hours. The overnight culture was subcultured by adding 100 μl of overnight culture to 10 ml of fresh TSB. Once mid-log phase was reached, the cells were pelleted by centrifugation, washed with PBS and resuspended in fresh PBS. In 15 ml culture tubes, 4.9 ml of Rich Broth (20 g/L yeast extract, 6 g/L TSB) was combined with 40 μl 0.5% phenol red indicator, 5 ml of 4% prebiotic (glycerol, sucrose, β-lactose, or D-(+)-maltose) or PBS as a control, and S. epidermidis (10^5 CFU/ml) and placed in an anaerobic Gas-Pak (BD). The cultures were incubated at 37° C., 215 RPM for 6 days. Following fermentation, the cells were pelleted and the supernatants were filtered through a 0.22 μm filter for sterilization.
No change in color occurred in PBS control (a).

[4] = system: P. acnes; settings: serial passage, 10 cycles of 72 hours, method written in future tense
Source text: Resistance development may be measured by two methods: single step for the determination of spontaneous frequency of resistance development and serial passage for the determination of progressive resistance development.

[5] = system: P. acnes 6919; test: Time-kill assay; format: cell-based, Propionibacterium acnes; settings: DRM1 30 mM or salicylic acid […] mM alone (2× MIC); combination […] + […]; RCM broth with 12% propylene glycol
[6] = system: biofilm-forming strains
Source text: Biofilm formation is an important factor in P. acnes pathogenicity and biofilm is detected in approximately half of hair follicles of acne patients.

[7] = system: P. acnes strains RMA#20660 and RMA#20661; test: MIC against multi-resistant P. acnes strains; format: cell-based, Propionibacterium acnes
Protocol: Individual MIC values were determined for each drug according to the microbroth dilution method. Briefly, 2-fold serial dilutions of each drug (50 μl) were added to wells in a 96-well plate followed by 50 μl of the prepared P. acnes inoculum as described in Example 1. Media without P. acnes and medium with P. acnes only were used for negative and positive controls, respectively, and contained the highest concentration of solvent used in each drug analysis. Plates were incubated under anaerobic conditions using a Gas-Pak (BD) for 48 hours at 37° C. Following incubation, each well was resuspended by pipetting and the optical density at 600 nm (OD600) was determined on a plate reader.

MIC ([1]; P. acnes ATCC 6919) [mM] | SMILES | MIC ([1]; P. acnes 6919) [µg/mL] | acidification of media (phenol red colour) by S. epidermidis fermentation [3] | further results
7.5 | O=C(O)CCCCCCCC(=O)O [Azelaic acid, azelaic acid, reference compound] |  |  | 
 | O=C(OOC(=O)c1ccccc1)c1ccccc1 [BPO, benzoyl peroxide, reference compound] | 125 |  | hyperpigmentation (dark spot side effect) [2]: dark spot side effect observed; individual MIC ([1]; P. acnes 6919): 125 µg/mL
 | CCC[C@@H]1C[C@@H](C(=O)N[C@@H]([C@H]2O[C@H](SC)[C@H](O)[C@@H](O)[C@H]2O)[C@H](C)Cl)N(C)C1 [Clindamycin, clindamycin, reference compound] | 0.063 |  | 
 | OC[C@H]1O[C@H](O[C@H]2[C@H](O)[C@@H](O)[C@H](O)O[C@@H]2CO)[C@H](O)[C@@H](O)[C@@H]1O [D-(+)-maltose] |  | change of color from red to yellow | 
1.88 | O=C(O)c1ccccn1 [Picolinic acid, picolinic acid] |  |  | 
7.5 | O=C(O)c1ccccc1O [Salicylic Acid, salicylic acid, reference compound] |  |  | growth on plate after 15 minutes [5]: growth was evident
 | OCC(O)CO [glycerol] |  | change of color from red to yellow | 
 | OC[C@H]1O[C@@](CO)(O[C@H]2O[C@H](CO)[C@@H](O)[C@H](O)[C@H]2O)[C@@H](O)[C@@H]1O [sucrose] |  | change of color from red to yellow | 
 | OC[C@H]1O[C@@H](O[C@H]2[C@H](O)[C@@H](O)[C@H](O)O[C@@H]2CO)[C@H](O)[C@@H](O)[C@H]1O [β-lactose] |  | change of color from red to yellow | 

SMILES | MIC ([1]; P. acnes ATCC 6919) [mM] | MIC ([1]; P. acnes 6919) [µg/mL] | acidification of media (phenol red colour) by S. epidermidis fermentation [3] | further results
O=C(O)CCC(=O)O [DRM1, succinic acid] | 15 | 1770 |  | spontaneous or progressive resistance development [4]: did not develop spontaneous or progressive resistance; growth on plate after 15 minutes [5]: growth was evident; concentration preventing biofilm formation [6]: ≥ 7.5 mM; MIC ([7]; Cutibacterium acnes, each of RMA#20660 and RMA#20661 (resistant to erythromycin, clindamycin, minocycline, doxycycline), ≥90% decrease in growth, OD600): 15 mM (≈ 1770 µg/mL); bactericidal activity against antibiotic-resistant P. acnes strains ([7]; RMA#20660 and RMA#20661): bactericidal; individual MIC ([1]; P. acnes 6919): 1771 µg/mL; individual MIC ([1]; P. acnes ATCC 6919): 15 mM
